Values joined by “and” are separate entries in the source; they are usually repeats but may differ in a detail not shown here. Identical values can stand only once. Like-named read-outs stand apart in the source and are kept apart here.
Key:
[1] = target: PfPMT (Plasmodium falciparum, UniProt Q8IDQ9); assay: PfPMT gene replacement yeast growth; settings: 100µM
[2] = system: NCI60 human tumor cell lines; assay: NCI60 5-dose (dose-response) assay; type: cell-based; settings: for MGLI50 = Mean Growth Log I50: 5-dose, mean over NCI60 panel; for _MID Log10GI50 / _MID Log10LC50 / _MID Log10TGI: mean over cell lines of one experiment
Source text: Columns IE-KK. NCI: Misra group (data presented first in this paper). NCI60 anti-tumor cell activity. Methods: […] These 60 cell lines, along with others, have been developed at NCI and have been maintained and distributed for research purposes by NCI for over 25 years. The experimental readout provides both inhibition of cell growth and cell kill. The screen was originally designed to prioritize agents for further evaluation. […] This is the same as for the 5-dose assay, described on http://dtp.cancer.gov/branches/btb/ivclsp.html. […] Testing beyond the initial screen: There were 133 compounds that passed threshold to proceed to 5-dose (dose-response) (data are available for the 133 compounds at the DTP public website (dtp.cancer.gov) by searching either the MMV number or NSC number). After examination of the 5-dose data, 10 compounds were selected for repeat testing based generally on potency, differential cell activity or activity on an individual cell lines or cell line panel. A summary of the data for the 10 compounds of interest is in the table below.

[3] = system: P. falciparum 3D7; assay: [3H]-hypoxanthine growth inhibition, modified HCO3- or O2; type: cell-based; settings: for IC50: Plasmodium falciparum
[4] = system: P. falciparum 3D7 trophozoites; assay: Metabolomic fingerprint profiling LC-MS; type: cell-based, Plasmodium falciparum; set-up: UDP-D-glucose / ADP-D-glucose: unit not given here
[5] = system: P. falciparum; assay: EC50 listed in S2 Table Metabolomics (used to set the concentration tested); type: cell-based; settings: Plasmodium falciparum; EC50 used for Factor_XEC50 in metabolomics; read-out: EC50_nM
[6] = metabolite level change after treatment

Sequence of PfPMT (Q8IDQ9 whole entry): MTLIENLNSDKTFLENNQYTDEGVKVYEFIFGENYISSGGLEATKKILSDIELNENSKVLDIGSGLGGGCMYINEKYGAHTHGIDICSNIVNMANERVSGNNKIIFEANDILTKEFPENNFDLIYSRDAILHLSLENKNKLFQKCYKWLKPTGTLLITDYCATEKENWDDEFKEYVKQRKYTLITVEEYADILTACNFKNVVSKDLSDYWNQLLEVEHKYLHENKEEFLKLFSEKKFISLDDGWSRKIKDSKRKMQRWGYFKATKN

## CCOc1ccc(Nc2c3ccccc3nc3ccccc23)cc1 [MMV000304]
[1]
  candidate inhibitors of PfPMT activity (yeast functional assay): candidate inhibitors of PfPMT activity

## CCCCCCn1c(=N)n(CC(O)COc2cccc(C)c2)c2ccccc21 (stereo not shown) [MMV000445]
[1]
  candidate inhibitors of PfPMT activity (yeast functional assay): candidate inhibitors of PfPMT activity

## CCOC(=O)c1cnc2ccc(OC)cc2c1Nc1ccc(N2CCN(C)CC2)cc1 [MMV000704]
[1]
  candidate inhibitors of PfPMT activity (yeast functional assay): candidate inhibitors of PfPMT activity

## Oc1c(CN2CCN(c3ccccc3F)CC2)cc(Br)c2cccnc12 [MMV000760]
[2]
  Notes (NCI60 5-dose activity pattern): Differential
  MGLI50 = Mean Growth Log I50: -6.02
[2]; listed as 766634/2
  _MID Log10GI50: -6.03 Molar and -6.0 Molar
  _MID Log10LC50: -4.04 Molar and -4.06 Molar
  _MID Log10TGI: -4.67 Molar and -4.74 Molar

## O=C(Nc1ccc(-c2nc3cc(NC(=O)c4ccc(Cl)cc4)ccc3[nH]2)cc1)c1ccc(Cl)cc1 [MMV006962]
[2]
  Notes (NCI60 5-dose activity pattern): Differential, CNS
  MGLI50 = Mean Growth Log I50: -5.61

## Cc1ccc2c(C)nc(Nc3nc(C)cc(-c4ccccc4)n3)nc2c1 [MMV007041]
[1]
  candidate inhibitors of PfPMT activity (yeast functional assay): candidate inhibitors of PfPMT activity

## O=C(NC1CCN(Cc2ccccc2)CC1)c1cc(-c2ccncc2)nc2ccc(Cl)cc12 [MMV020275]
[2]
  MGLI50 = Mean Growth Log I50: -4.93
[2]; listed as 766585/2
  _MID Log10GI50: -4.95 Molar and -4.91 Molar
  _MID Log10LC50: -4.05 Molar and -4.01 Molar
  _MID Log10TGI: -4.34 Molar and -4.19 Molar

## N=c1n(CCN2CCCCC2)c2ccccc2n1CC(=O)c1ccc(Cl)c(Cl)c1 [MMV396723]
[1]
  candidate inhibitors of PfPMT activity (yeast functional assay): candidate inhibitors of PfPMT activity

## OC(CNCC1CCCO1)Cn1c2ccc(Cl)cc2c2cc(Cl)ccc21 (stereo not shown) [MMV396736]
[1]
  candidate inhibitors of PfPMT activity (yeast functional assay): candidate inhibitors of PfPMT activity

## CCOc1cc(Br)c(C(C)NC(=O)c2cccc(OC)c2)cc1OCC (stereo not shown) [MMV665796]
[2]
  MGLI50 = Mean Growth Log I50: -5
  _MID Log10LC50: -4.0 Molar
[2]; listed as 766556/2
  _MID Log10GI50: -5.02 Molar and -4.97 Molar
  _MID Log10TGI: -4.07 Molar and -4.08 Molar

## CCOc1cc(Cl)c(C(C)NC(=O)c2cccc(OC)c2)cc1OCC (stereo not shown) [MMV665803]
[2]
  MGLI50 = Mean Growth Log I50: -5.01
  _MID Log10LC50: -4.0 Molar
[2]; listed as 766546/2
  _MID Log10GI50: -5.1 Molar and -4.93 Molar
  _MID Log10TGI: -4.1 Molar and -4.05 Molar

## COc1cccc(C(=O)NC(c2ccc(C)cc2)c2cc(Cl)c3cccnc3c2O)c1 (stereo not shown) [MMV665969]
[2]
  MGLI50 = Mean Growth Log I50: -6.29
  _MID Log10GI50: -6.3 Molar
  _MID Log10LC50: -4.16 Molar
  _MID Log10TGI: -4.91 Molar

## CCOC(=O)c1cn(CC)c2cc(N(C)CCc3ccc(OC)c(OC)c3)c(F)cc2c1=O [MMV665977]
[3]
  fold change (IC50normal/ IC50hypoxia): 4.1
[3]; 3D7, read-out: P. falciparum 3D7 IC50 1% O2, 1% O2 hypoxia
  IC50: 85 nM
[3]; 3D7, read-out: P. falciparum 3D7 IC50 5% O2
  IC50: 345 nM
[4]; S2 Table Metabolomics, metabolite Acetyllysine
  Acetyllysine: -0.2007
[4]; S2 Table Metabolomics, metabolite N-acetyl-L-ornithine
  N-acetyl-L-ornithine: 0.023
[4]; S2 Table Metabolomics, metabolite N-carbamoyl-L-aspartate
  N-carbamoyl-L-aspartate: 3.959
[4]; S2 Table Metabolomics, metabolite NADPH
  NADPH: -0.01115
[4]; S2 Table Metabolomics, metabolite dAMP
  dAMP: 0.7523
[4]; S2 Table Metabolomics, metabolite dCMP
  dCMP: 0.5464
[4]; S2 Table Metabolomics, metabolite dTDP
  dTDP: 0.1785
[4]; S2 Table Metabolomics, metabolite dTMP
  dTMP: 0.2344
[4]; S2 Table Metabolomics, metabolite dTTP
  dTTP: -0.3388
[4]; S2 Table Metabolomics, metabolite dihydroorotate
  dihydroorotate: 4.609
[4]; S2 Table Metabolomics, metabolite orotate
  orotate: -0.8094
[4]; S2 Table Metabolomics, peptide DLH
  DLH: -0.4948
[4]; S2 Table Metabolomics, peptide DLS/SDL/SID
  DLS/SDL/SID: -0.3029
[4]; S2 Table Metabolomics, peptide PD
  PD: 0.1633
[4]; S2 Table Metabolomics, peptide PEE
  PEE: -0.1468
[4]; S2 Table Metabolomics, peptide PVNF
  PVNF: -0.5192
[4]; metabolite 3-phosphoglycerate, S2 Table Metabolomics
  3-phosphoglycerate: -0.3617
[4]; metabolite ADP-D-glucose, S2 Table Metabolomics
  ADP-D-glucose: 0.08874
[4]; metabolite ATP, S2 Table Metabolomics
  ATP: -0.1759
[4]; metabolite CDP, S2 Table Metabolomics, change in metabolite level after compound treatment
  CDP: 0.4208
[4]; metabolite D-sedoheptulose-1/7-phosphate, S2 Table Metabolomics, change in metabolite level after compound treatment
  D-sedoheptulose-1/7-phosphate: 0.7585
[4]; metabolite FAD, S2 Table Metabolomics
  FAD: 0.2291
[4]; metabolite GMP, S2 Table Metabolomics, change in metabolite level after compound treatment
  GMP: -0.3238
[4]; metabolite NAD+, S2 Table Metabolomics
  NAD+: 0.1079
[4]; metabolite NADP+, S2 Table Metabolomics
  NADP+: 0.05477
[4]; metabolite Octoluse Bisphosphate, S2 Table Metabolomics, change in metabolite level after compound treatment
  Octoluse Bisphosphate: -0.07826
[4]; metabolite Pyroglutamic acid, S2 Table Metabolomics
  Pyroglutamic acid: -0.2687
[4]; metabolite UDP-D-glucose, S2 Table Metabolomics
  UDP-D-glucose: 0.1563
[4]; metabolite UDP-D-glucuronate, S2 Table Metabolomics
  UDP-D-glucuronate: 0.07018
[4]; metabolite UDP-N-acetyl-glucosamine, S2 Table Metabolomics
  UDP-N-acetyl-glucosamine: 0.07391
[4]; metabolite UDP, S2 Table Metabolomics, change in metabolite level after compound treatment
  UDP: 0.2133
[4]; metabolite UMP, S2 Table Metabolomics, change in metabolite level after compound treatment
  UMP: -0.8829
[4]; metabolite UTP, S2 Table Metabolomics, change in metabolite level after compound treatment
  UTP: -1.518
[4]; metabolite a-ketoglutarate, S2 Table Metabolomics
  a-ketoglutarate: -0.594
[4]; metabolite citrate/isocitrate, S2 Table Metabolomics, change in metabolite level after compound treatment
  citrate/isocitrate: -0.7044
[4]; metabolite cytidine, S2 Table Metabolomics
  cytidine: 0.327
[4]; metabolite dATP, S2 Table Metabolomics
  dATP: 0.6974
[4]; metabolite dGMP/AMP, S2 Table Metabolomics, change in metabolite level after compound treatment
  dGMP/AMP: -0.4295
[4]; metabolite fumarate, S2 Table Metabolomics, change in metabolite level after compound treatment
  fumarate: 0.007291
[4]; metabolite glucose-1/6-phosphate, S2 Table Metabolomics, change in metabolite level after compound treatment
  glucose-1/6-phosphate: 0.2816
[4]; metabolite glycerate, S2 Table Metabolomics, change in metabolite level after compound treatment
  glycerate: -0.4808
[4]; metabolite guanine, S2 Table Metabolomics, change in metabolite level after compound treatment
  guanine: 0.3502
[4]; metabolite guanosine, S2 Table Metabolomics, change in metabolite level after compound treatment
  guanosine: 0.225
[4]; metabolite hypoxanthine, S2 Table Metabolomics
  hypoxanthine: -0.2655
[4]; metabolite indole, S2 Table Metabolomics
  indole: -0.1099
[4]; metabolite inosine, S2 Table Metabolomics, change in metabolite level after compound treatment
  inosine: 0.2015
[4]; [6]
  2_3-Diphosphoglyceric acid: 0.344
  4-phosphopantothenate: -0.03263
  6-phospho-D-gluconate: 0.2163
  FMN: 0.1874
  IMP: 0.1512
  Pyrophosphate: 0.2053
  Sedoheptoluse bisphosphate: 0.01379
  cyclic-AMP: 0.02919
  glutathione disulfide: 0.2163
  lactate: -0.4098
  myo-inositol: -0.567
[4]; metabolite nicotinate, S2 Table Metabolomics
  nicotinate: -0.4053
[4]; metabolite ornithine, S2 Table Metabolomics
  ornithine: 0.1382
[4]; metabolite phosphoenolpyruvate, S2 Table Metabolomics
  phosphoenolpyruvate: -0.3385
[4]; metabolite pyruvate, S2 Table Metabolomics, change in metabolite level after compound treatment
  pyruvate: -0.6681
[4]; metabolite ribose-phosphate, S2 Table Metabolomics
  ribose-phosphate: -0.2449
[4]; metabolite sarcosine/alanine, S2 Table Metabolomics, change in metabolite level after compound treatment
  sarcosine/alanine: 0.1312
[4]; metabolite sn-glycerol-3-phosphate, S2 Table Metabolomics
  sn-glycerol-3-phosphate: 0.2048
[4]; metabolite succinate/methylmalonic acid, S2 Table Metabolomics, change in metabolite level after compound treatment
  succinate/methylmalonic acid: -0.4008
[4]; metabolite uridine, S2 Table Metabolomics, change in metabolite level after compound treatment
  uridine: -0.5319
[4]; metabolite xanthosine, S2 Table Metabolomics, change in metabolite level after compound treatment
  xanthosine: -0.3168
[5]
  EC50: 205 nM

## Cc1ccc(OCCCCCCNCCO)c(C)c1 [MMV666020]
[2]
  MGLI50 = Mean Growth Log I50: -4.9
[2]; listed as 766672/2
  _MID Log10GI50: -4.93 Molar and -4.86 Molar
  _MID Log10LC50: -4.21 Molar and -4.19 Molar
  _MID Log10TGI: -4.56 Molar and -4.52 Molar

## CCCCCCc1cc2cc(-c3nc4ccccc4[nH]3)c(=Nc3ccccc3C)oc2cc1O [MMV666597]
[2]
  Notes (NCI60 5-dose activity pattern): Differential
  MGLI50 = Mean Growth Log I50: -5.57

Source: publication PMC4965013, “Open Source Drug Discovery with the Malaria Box Compound Collection for Neglected Diseases and Beyond” (PLoS Pathogens, 2016)
